{"source": "patent US20060216356A1", "about": "“Detection of antibacterial activity in excretory secretory product of adult trichuris suis” (Board of Trustees of Michigan State University, priority 2000, published 2006)", "key": {"Campylobacter jejuni [1]": {"system": "Campylobacter jejuni", "assay": "Effect of boiling on antibiotics, qualitative broth microdilution assay", "type": "cell-based", "conditions": "1x concentration, boiled for 10 minutes", "experimental": "A broth microdilution method in 96 well plates was used to obtain qualitative and quantitative measures of antibacterial activity. Qualitatively, 50 μl samples of ESP were added to 50 μl suspensions of Campylobacter jejuni (containing about 5×10^5 cfu, as determined by standard serial dilution and plating) in 96 well plates. Plates were evaluated for growth as indicated by the presence of either turbidity or pellet of bacterial cells in the bottoms of U-shaped wells after 48 hr incubation. […] The size of the drug was also taken into consideration. Additionally, an experiment to assess the heat stability of the antibiotics was performed."}, "[2]": {"conditions": "compiled from a drug database at Upjohn; cited from earlier work"}, "[3]": {"assay": "n-octanol/water partition coefficient (log PC) of antibiotics", "type": "physicochemical", "conditions": "in parentheses beside log PC", "experimental": "Consideration of CAP contamination. […] Using the worst-case scenario, the predicted maximum amount of CAP absorbed and how much would be released into the medium if the whipworms dissolved (i.e., released 100%) was estimated. […] It was assumed that the aggregate whipworm volume of these eccentrically shaped nematodes occupied 4% of the incubation well volume (4 whipworms/ml at about 10 μl/whipworm)."}, "Campylobacter jejuni [4]": {"system": "Campylobacter jejuni", "assay": "Broth microdilution MIC/MBC and antibacterial titer on Campylobacter jejuni", "type": "cell-based", "experimental": "Bacterial strains and media. The antibacterial activity in Trichuris suis ESP was originally observed using Campylobacter jejuni (ATCC 33292), and this was the strain on which most experiments were performed for this preliminary characterization. Several Campylobacter jejuni and Campylobacter coli isolates were used for MIC determinations (Table 1).\nAdditional quality control organisms routinely used for antimicrobial susceptibility assays were tested, including Enterococcus faecalis (ATCC 29212), Staphylococcus aureus (ATCC 25923), Escherichia coli (ATCC 25922), Pseudomonas aeruginosa (ATCC 27853), and Streptococcus pneumonia (ATCC 49619). […]\n(§1) A broth microdilution method in 96 well plates was used to obtain qualitative and quantitative measures of antibacterial activity. Qualitatively, 50 μl samples of ESP were added to 50 μl suspensions of Campylobacter jejuni (containing about 5×10^5 cfu, as determined by standard serial dilution and plating) in 96 well plates. Plates were evaluated for growth as indicated by the presence of either turbidity or pellet of bacterial cells in the bottoms of U-shaped wells after 48 hr incubation.\nTo quantify activity and determine the minimum inhibitory concentration (MIC) of ESP against test organisms, serial two-fold dilutions of 20×-concentrated ESP were prepared in 50 μl volumes of MHB (n=2). […]"}, "Campylobacter jejuni [5]": {"system": "Campylobacter jejuni", "assay": "HPLC fractionation with qualitative broth microdilution bioassay of fractions", "type": "cell-based", "conditions": "C18 reverse phase HPLC, 5-80% ACN gradient in TFA", "experimental": "as §1\nHigh performance liquid chromatography. A Model 173 high performance liquid chromatography (HPLC) system (Perkin Elmer Applied Biosystems, Inc., Foster City, Calif.) at the Michigan State University Macromolecular Structure Facility was used to fractionate Trichuris suis ESP for preliminary isolation of the antibacterial activity (Hearn, Meth. Enzymol. 104: 190-212 (1984)). Samples (150 μl) of ESP were mixed with an equal volume of 0.1% trifluoroacetic acid (TFA) and centrifuged at full speed (11,000×g) at room temperature for 15 minutes. […] Absorbance of the eluate was monitored at 214 nm, and fractions were collected manually as peaks were detected. […]"}}, "note": "Counter-ions that a name gives are not always drawn."}
{"compound": "CC1(C)S[C@@H]2[C@H](NC(=O)Cc3ccccc3)C(=O)N2[C@H]1C(=O)O", "note": "[Penicillin G]", "values": [{"measurement": "Antibacterial activity after boiling", "setting": "Campylobacter jejuni [1]", "value": "−"}, {"measurement": "log PC (n-octanol/water partition coefficient)", "setting": "[2]", "value": 185}, {"measurement": "Concentrating factor", "setting": "[3]", "value": 71, "unit": "x"}]}
{"compound": "O=C(N[C@H](CO)[C@H](O)c1ccc([N+](=O)[O-])cc1)C(Cl)Cl", "note": "[Chloramphenicol]", "values": [{"measurement": "Antibacterial activity after boiling", "setting": "Campylobacter jejuni [1]", "value": "+"}, {"measurement": "MIC", "setting": "Campylobacter jejuni [4]", "value": "~2", "unit": "µg/mL"}, {"measurement": "antibacterial activity of HPLC fractions", "setting": "Campylobacter jejuni [5]", "value": "one fraction with antibacterial activity"}]}
{"compound": "[H]/N=C(/N)N[C@H]1[C@H](O)[C@@H](O)[C@H](O[C@@H]2O[C@@H](C)[C@](O)(C=O)[C@H]2O[C@@H]2O[C@@H](CO)[C@H](O)[C@@H](O)[C@@H]2NC)[C@@H](N/C(N)=N\\[H])[C@@H]1O", "note": "[Streptomycin sulfate]", "values": [{"measurement": "Antibacterial activity after boiling", "setting": "Campylobacter jejuni [1]", "value": "+"}, {"measurement": "log PC (n-octanol/water partition coefficient)", "setting": "[2]", "value": "−9.53(—)"}]}
